Experiments:
A498 = assay: NCI 60-cell panel dose-response; assay type: cell-based; conditions: Homo sapiens; A498 (Renal cancer)
telomerase = assay: PCR-based telomerase assay, TRAP (telomeric repeat amplification protocol); assay type: biochemical
Source text: Binding of low-molecular weight ligands to quadruplexes was first studied with the classic DNA intercalator ethidium and the telomere sequence T4G4 from Oxytricha. It is apparent that G-quadruplexes, with their unique structural, electrostatic and hydrogen bonding features, are the more likely targets for drug action rather than typical duplex or triplex DNA. […] To evaluate the effects of these derivatives on telomerase inhibition, we used PCR-based telomerase assay and TRAP (telomeric repeat amplification protocol) assay at a compound concentration of 100 μM.

HeLa cells = assay: DNA damage, immunoblot of γ-phosphorylation of histone H2A.X; assay type: cell-based, human; conditions: various doses, 12 hour
Method: The anthracyclin antibiotic agent doxorubicin (DXR) is an active cytotoxic reagent with a wide range of clinical indications, including treatment of solid tumors in the ovary, breast, and gastrointestinal systems, as well as treatment of liquid tumors such as leukemia. […] Specifically, HeLa cells were treated with NSC745885 at various doses for 12 hour. The phosphorylation of γ-H2A.X was subsequently detected by the immunoblot.
Cell lysates were prepared in lysis buffer (100 mM Tris-HCl pH 8.0, 150 mM NaCl, 0.1% SDS, and 1% Triton 100) at 4° C., separated by sodium dodecyl sulfate-polyacrylamide gel electrophoresis (SDS-PAGE), and then transferred onto a polyvinylidine difluoride membrane (Millipore, USA). Proteins were detected using antibodies against alpha actinin (ACTN), proliferating cell nuclear antigen (PCNA), p53, p21, cyclin B1, and cyclin D1 (Santa Cruz Biotechnology, USA), YH2A.X (EP854(2)Y, Epitomics, USA), cleaved caspase 3, cleaved poly(ADP-ribose) polymerase (PARP) and LC3B-II (Cell signaling, USA).

With O=C1c2ccccc2C(=O)c2c1ccc1nsnc21 [NSC745885, anthra[2,1-c][1,2,5]thiadiazole-6,11-dione] the GI50 (A498) was 12.4 µM, the “telomerase activity (TRAP lane pattern)” value (telomerase; 100 μM, H1299 cell extract) was “little different from positive control” and the “telomerase inhibitory activity level” value (telomerase; H1299 cells, TRAP) was “activity at the micromolar level”. The “DNA damage (phosphorylation of γ-H2A.X, immunoblot)” value (HeLa cells) was “strongly induced DNA damage”.

Reference: patent US8772321B2, “Heteroannelated anthraquinone derivatives for inhibiting cancers” (National Defense Medical Center, priority 2008, dated 2014)
